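Cultured in 96-well plates, cells were exposed to test compound for 48 hours across five concentrations. Here, GI50 denotes the concentration required for 50% inhibition of growth. Definition used: TGI = concentration required for complete inhibition of growth.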
Tests used:
Experiment in all cases: growth of human tumour cells (NCI), 48 h
SN12C renal = system: SN12C renal
SK-OV-3 ovarian = system: SK-OV-3 ovarian
CCRF-CEM leukemia = system: CCRF-CEM leukemia
HT29 colon = system: HT29 colon
UO-31 renal = system: UO-31 renal
MDA-MB-435 = system: MDA-MB-435
OVCAR-5 ovarian = system: OVCAR-5 ovarian
OVCAR-4 ovarian = system: OVCAR-4 ovarian
U251 CNS = system: U251 CNS
HOP-92 NSCLC = system: HOP-92 NSCLC

Row | Compound | TGI (SN12C renal) [µM] | TGI (SK-OV-3 ovarian) [µM] | TGI (CCRF-CEM leukemia) [µM] | TGI (HT29 colon) [µM] | TGI (UO-31 renal) [µM] | TGI (MDA-MB-435) [µM] | TGI (OVCAR-5 ovarian) [µM] | TGI (OVCAR-4 ovarian) [µM] | TGI (U251 CNS) [µM] | TGI (HOP-92 NSCLC) [µM] | GI50 (HOP-92 NSCLC) [nM] | GI50 (SN12C renal) [µM] | GI50 (SK-OV-3 ovarian) [µM] | GI50 (HT29 colon) [µM] | GI50 (UO-31 renal) [nM] | GI50 (OVCAR-4 ovarian) [µM] | GI50 (U251 CNS) [µM]
1 | CCc1ccc2[nH]c(O)c(-c3[nH]c4ccccc4c3N=O)c2c1 | 18 | 12.1 | > 100 | 25.5 | 12 | 21.9 | 58.2 | 21.8 | 21.5 | – | – | – | – | – | – | – | –
2 | Nc1ccccc1N/C=C\C(=O)C(Cl)(Cl)Cl | 40.2 | 70.8 | > 100 | 34.6 | 62.6 | 28 | 45.6 | 44.4 | 56.9 | 47.8 | – | – | – | – | – | – | –
3 | Cc1ccc(N2CCc3c(C)c(C#N)c4nc5ccccc5n4c32)cc1 | > 100 | > 100 | > 100 | > 100 | > 100 | > 100 | > 100 | > 100 | > 100 | 57.5 | – | – | – | – | – | – | –
4 | CC(C)(C)C1(COC(=O)c2ccc(N)cc2)COC1 | > 100 | > 100 | > 100 | > 100 | > 100 | > 100 | > 100 | > 100 | > 100 | > 100 | – | – | – | – | – | – | –
5 | CCCCc1ccc(Nc2ncc3[nH]cnc3n2)cc1 | 48.9 | 38.1 | > 100 | 44.8 | 37.9 | > 100 | > 100 | 80.1 | 60.4 | 49.7 | – | – | – | – | – | – | –
6 | Cc1cn(CC2=NCC(C)(C)N2)c(=O)[nH]c1=O | > 100 | > 100 | > 100 | > 100 | > 100 | – | > 100 | – | > 100 | > 100 | – | – | – | – | – | – | –
7 | C=C(CC[C@@H](C(=O)O)[C@H]1[C@H](O)C[C@@]2(C)C3=CC[C@@H](C(=C)C)[C@](C)(CCC(=O)O)C3=CC[C@]12C)C(C)C | 31.9 | 31.9 | > 100 | 32.8 | 31.5 | 33.5 | 30.5 | 36.3 | 32.8 | 33.7 | – | – | – | – | – | – | –
8 | CCCNC(C#N)c1ccc(C(C#N)NCCC)cc1 (stereo not given) | > 100 | > 100 | > 100 | > 100 | > 100 | > 100 | > 100 | > 100 | > 100 | > 100 | – | – | – | – | – | – | –
9 | COc1ccc2c(c1)N=C1CSC(c3ccccc3Cl)N1C2 (stereo not given) | 37.5 | 47.5 | – | 19.6 | 1.8 | 27.7 | 28.2 | 35.6 | 66.8 | 82.5 | – | – | – | – | – | – | –
10 | CN(C)CCSC(=Nc1ccccc1)N1CCCCC1 | 32.6 | > 100 | > 100 | 33 | 52.5 | – | 35.3 | 40.2 | > 100 | 27.5 | – | – | – | – | – | – | –
11 | C1CCC(OC2CSC2)OC1 (stereo not given) | > 100 | > 100 | > 100 | > 100 | > 100 | > 100 | – | > 100 | > 100 | > 100 | – | – | – | – | – | – | –
12 | O=C1Nc2cc([N+](=O)[O-])ccc2NC1/C(=N\Nc1ccccc1)C(O)c1cccc([N+](=O)[O-])c1 (stereo not given) | > 100 | > 100 | > 100 | > 100 | > 100 | – | > 100 | > 100 | > 100 | > 100 | – | – | – | – | – | – | –
13 | CC(=O)O[C@]12CCCC1C1(O)C(O)CCCC12 (stereo not given in full) | > 100 | > 100 | > 100 | > 100 | > 100 | – | – | > 100 | > 100 | – | – | – | – | – | – | – | –
14 | COC(=O)c1cc(C#N)[nH]c1-c1ccc(C)s1 | > 100 | > 100 | > 100 | – | > 100 | > 100 | > 100 | > 100 | > 100 | 82.1 | – | – | – | – | – | – | –
15 | Cc1cccc(C2=NC(C)(C)C(C)(C)N=C2c2cccc(C)n2)n1 | – | > 100 | > 100 | > 100 | > 100 | – | > 100 | > 100 | > 100 | > 100 | – | – | – | – | – | – | –
16 | COc1cccc(Cc2c3cc(OC)ccc3cc[n+]2C)c1 | > 100 | – | > 100 | > 100 | > 100 | – | > 100 | > 100 | > 100 | – | – | – | – | – | – | – | –
17 | O=C1/C(=C/c2ccccc2[N+](=O)[O-])N=C(c2ccccc2)N1C1Nc2cc3c(cc2S1)NC(N1C(=O)/C(=C/c2ccccc2[N+](=O)[O-])N=C1c1ccccc1)S3 (stereo not given) | – | – | – | > 100 | > 100 | > 100 | > 100 | > 100 | > 100 | > 100 | – | – | – | – | – | – | –
18 | Oc1[nH]c2ccccc2c1N=Nc1nc(-c2ccc(Cl)c(Cl)c2)cs1 | > 100 | > 100 | – | > 100 | > 100 | > 100 | > 100 | > 100 | > 100 | > 100 | – | – | – | – | – | – | –
19 | O=C(N/N=C/c1cc(Cl)cc(Cl)c1[O-])c1ccccc1O.O=C(N/N=C/c1cc(Cl)cc(Cl)c1[O-])c1ccccc1O.[Ni+2] | – | 3.93 | – | 3.4 | 10.1 | – | 1.09 | 1.21 | 1.98 | 1.79 | 495 | – | – | – | – | – | –
20 | COC(=O)/C=C1\CCC(C)(C(=O)NS(=O)(=O)c2ccc(C)cc2)C1(C)C (stereo not given) | > 100 | > 100 | > 100 | – | > 100 | > 100 | > 100 | > 100 | > 100 | > 100 | – | – | – | – | – | – | –
21 | CCOc1nc(-c2ccccc2)cc(-c2ccc(N3CCOCC3)cc2)c1C#N | > 100 | – | > 100 | > 100 | > 100 | > 100 | > 100 | > 100 | > 100 | > 100 | – | – | – | – | – | – | –
22 | O=C1NC2(CCCCC2)C2CCCCCC12 (stereo not given) | > 100 | > 100 | – | > 100 | > 100 | – | > 100 | > 100 | > 100 | – | – | – | – | – | – | – | –
23 | N#C[S-].[Nd+3].c1ccc(-c2ccccn2)nc1.c1ccc(-c2ccccn2)nc1.c1ccc(-c2ccccn2)nc1 | > 100 | > 100 | – | > 100 | 5.5 | – | – | > 100 | > 100 | – | – | 5.82 | 6.93 | 4.83 | 2190 | 49.8 | 4.18

From PubChem BioAssay (NCI)
